According to patent publication US8338663B2 (priority 2001, dated 2012):

What was measured:
Phytophthora infestans [1] = format: cell-based; details: for inhibition of mycelium growth: 2% and 0.2% (v/v) in Plich medium, isolate VK98014, day 3, 5 and 7; for effect on mycelium growth at the lowest concentration: 0.002% (=20 ppm) in Plich medium, isolate VK98014, day 3 and 5; for effect on mycelium growth through the vapour phase: 0.2% added to the medium in the adjacent wells, isolate VK98014
[2] = tested on: Agrobacterium tumefaciens; experiment: Transformation of Agrobacterium with H64NORS binary vector (nerolidol formed from endogenous FPP); format: cell-based; details: inferred: no colonies obtained after transformation of 2 strains with H64NORS
[3] = tested on: Botrytis cinerea isolated from grape and strawberry; experiment: Effects of linalool and nerolidol on Botrytis mycelial growth; format: cell-based; details: day 7
Experimental: Botrytis. Nerolidol and linalool were tested in a range of concentrations (10-5000 ppm) alone and in combination through the addition to Plich medium in 6 well plates (3 ml per well). In the case of comparing the application of nerolidol and linalool alone to the combination of the two compounds, 100 ppm of the single compound was for example compared to 50+50 ppm of the two compounds together. One 6 well plate per compound was used with two different concentrations in triplicate. All wells were inoculated with a mycelium plug of Botrytis cinerea isolated from grape and strawberry and incubated at 20° C. Each day the radial growth of the mycelium was measured. The mycelium growth of all Botrytis isolates was inhibited at concentrations above 10 ppm.

[4] = tested on: Fusarium graminearum, Fusarium culmorum, F. verticillioides strain MRC826; format: cell-based, Fusarium spp.
[5] = tested on: Fusarium verticillioides spores; experiment: Spectrophotometric assay of Fusarium spore germination; format: cell-based; details: 10^5 spores/ml in Czapek Dox medium, day 3
Experimental: A spectrophotometric assay was used to monitor the onset of germination of Fusarium verticillioides spores (isolates: ITEM2282, MRC3235, MRC826, MRC826-2) in solution. The spores were diluted to a concentration of 10^5 spores/ml in Czapek Dox medium and mixed with 8-4000 ppm of linalool or nerolidol.

Phytophthora infestans [6] = format: in vivo; details: cultivar Bintje, 0.05% (v/v) solution vacuum-infiltrated (ca. 0.0125% in leaves), 4 isolates, after 7 days
[7] = tested on: Phytophthora infestans (isolate VK98014); format: cell-based
[8] = tested on: Phytophthora infestans (isolate VK98014); format: cell-based; details: linalool versus farnesol
[9] = target: T1, H64NORS linalool/nerolidol synthase, cultivated strawberry, recombinant his-tag purified, no targeting signal, SEQ ID NO: 19 (Fragaria x ananassa, UniProt P0CV94); experiment: Kinetic characterisation of the his-tag purified H64NORS-encoded protein; format: biochemical, cultivated strawberry (Fragaria×ananassa Duch. cv. Elsanta); details: read-out: Km for GPP
T1 sequence (P0CV94 1-519): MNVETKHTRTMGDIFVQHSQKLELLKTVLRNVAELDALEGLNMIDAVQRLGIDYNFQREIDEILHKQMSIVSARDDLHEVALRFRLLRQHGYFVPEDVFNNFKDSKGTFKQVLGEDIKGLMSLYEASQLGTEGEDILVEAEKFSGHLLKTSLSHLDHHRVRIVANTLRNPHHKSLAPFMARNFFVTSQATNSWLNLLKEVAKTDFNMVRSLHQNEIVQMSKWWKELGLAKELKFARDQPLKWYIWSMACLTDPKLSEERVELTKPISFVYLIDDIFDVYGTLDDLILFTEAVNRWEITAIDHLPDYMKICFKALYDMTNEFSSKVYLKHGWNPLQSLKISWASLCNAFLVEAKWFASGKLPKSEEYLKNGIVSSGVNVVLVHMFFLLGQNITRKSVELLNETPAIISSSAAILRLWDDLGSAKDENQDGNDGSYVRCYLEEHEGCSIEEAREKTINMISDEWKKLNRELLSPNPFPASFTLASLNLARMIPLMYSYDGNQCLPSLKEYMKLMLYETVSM
Experimental: The pRSETB vector harboring the H64MUT or H64NORS was used to transform E. coli strain BL21 Gold DE3 pLysE (Stratagene) as described by the manufacturer. For bacterial expression typically 1 ml of overnight liquid culture grown at 37° C. in Luria Broth (LB) medium (10 g/l tryptone, 5 g/l yeast extract, 5 g/l NaCl) supplemented with 100 mg/l ampicillin was diluted 50 times in the same medium and grown until the OD600 reached 0.4 (at 37° C.). At this stage IPTG was added to a final concentration of 1 mM in order to induce expression. After overnight growth at 16° C. the cells were harvested by centrifugation at 4000×g for 15 min. […] The cells were further processed as described by the Ni-NTA Spin Columns manufacturers (QIAGEN) for protein purification under native conditions. First elute from the column (200 μl) was further used for enzymatic activity assays.
For determination of terpene synthase identity, the His-tag purified enzymes (prepared as described above under Example 4.6) were diluted 10-fold with buffer A containing 15 mM MOPSO (pH 7.0), 10% glycerol, 10 mM MgCl2, 1 mM sodium ascorbate and 2 mM DTT. […]
The samples were also analysed by GC-MS using a HP 5890 series II gas chromatograph equipped with an HP5-MS column (30 m×0.25 mm i.d., 0.25 μm df) and HP 5972A Mass Selective Detector (Hewlett-Packard). […]

[10] = substrate: CC(C)=CCC/C(C)=C/CC/C(C)=C/CO[P@@](=O)(O)OP(=O)(O)O; experiment: purified protein, by the assay type; details: pH 7.0

## CC(C)=CCCC(C)=CCCC(C)=CCO [Farnesol, reference compound]
Phytophthora infestans [1]
  inhibition of mycelium growth: partial inhibition

## C=CC(C)(O)CCC=C(C)CCC=C(C)C (stereo not shown) [nerolidol]
[2]
  toxicity to Agrobacterium cells: highly toxic
[3]; nerolidol versus linalool
  Relative effectiveness at low concentrations: more effective than linalool
[4]; F. graminearum and MRC826, day 7
  Relative effectiveness at low concentrations: slightly more effective than linalool
[5]; 8-4000 ppm tested
  concentrations showing strong inhibition of germination: above 250 ppm
Phytophthora infestans [6]
  effect on mycelium growth, lesion formation and sporulation in infiltrated potato leaves: strongly inhibits mycelium growth, lesion formation and sporulation
Phytophthora infestans [1]
  effect on mycelium growth at the lowest concentration: strong inhibitor of mycelium growth
  effect on mycelium growth through the vapour phase: negligible
[7]; nerolidol versus linalool
  Relative effectiveness, inhibition of mycelium growth: slightly more effective than linalool

## C=CC(C)(O)CCC=C(C)C (stereo not shown) [linalool]
[3]; linalool or the combination
  Relative effectiveness at very high concentrations: most effective
[8]
  Relative activity, inhibition of mycelium growth: more active than farnesol
[4]; nerolidol versus linalool, day 7
  Relative effectiveness at very high concentrations: more effective
[5]; 8-4000 ppm
  effect on germination of spores: did not affect the germination of the spores at all
Phytophthora infestans [1]
  effect on mycelium growth at the lowest concentration: active
  effect on mycelium growth through the vapour phase: equally effective through the vapour phase as through the medium
  inhibition of mycelium growth: inhibited completely
[7]; 0.002% (=20 ppm) in Plich medium, day 3 and 5
  Inhibition of mycelium growth at the lowest concentration: active even at the lowest concentration

## CC(C)=CCC/C(C)=C/COP(=O)(O)OP(=O)(O)O [GPP, geranyl diphosphate]
[9]
  Km: > 50 µM

B1: H64NORS linalool/nerolidol synthase, cultivated strawberry, recombinant his-tag purified, no targeting signal, SEQ ID NO: 19 (Fragaria x ananassa) (protein)
chain: T1 sequence (P0CV94 1-519)
[10]
  Km: 3.2 µM
